Data published in paper PMC5896778 (Developmental cell, 2018).

Key:
[1] = system: CDK activity and EB3 abundance in HCMV AD169-infected NHDFs; conditions: 3 µM
[2] = system: MT formation at Golgi fragments in HCMV-infected NHDFs; experiment: Nocodazole washout assay, MT nucleation; assay type: cell-based, human; conditions: 10µM nocodazole for 8h, mock or AD169-infected NHDFs, 3d

Structure (SMILES)	effect on IE2 expression ([1]; AD169 MOI 3, WB)	CDK substrate phosphorylation and increases in EB3 abundance by 3d.p.i. ([1]; daily inhibitor replenishment, AD169 MOI 3, 3d.p.i.)	effect on HCMV-induced CDK activation (pan-CDK1 substrate antibody) ([1]; replaced every 24h, AD169 MOI 3, WB)	effect on HCMV-induced increases in EB3 ([1]; replaced every 24h, AD169 MOI 3, WB, 1 and 2 d.p.i.)	effect on MTs, Golgi and AC structures [2]
Nc1nc(Nc2ccc(S(N)(=O)=O)cc2)nn1C(=O)c1c(F)cccc1F [JNJ-7706621]	modestly affected IE2 expression	insensitive	suppressed HCMV-induced CDK activation	prevented increases in EB3 at 1 and 2 d.p.i.	–
COC(=O)Nc1nc2ccc(C(=O)c3cccs3)cc2[nH]1 [nocodazole]	–	–	–	–	depolymerized MTs and dispersed Golgi and AC structures
